Entries after “also recorded” stand apart in the source; their conditions may differ.
Key:
recombinant Tat = target: T1, recombinant Tat (Human immunodeficiency virus type 1 (HXB3 ISOLATE), UniProt P69698); assay: Recombinant Tat stability in HEK293T cells, western blot; assay type: cell-based, HIV; settings: 4 hrs recombinant Tat then 2 hrs compound, n=1
T1 construct: detected with anti-Tat serum
Experimental: (§1) Next, the effect of the three leads on the alteration of Tat steady state levels was assessed. Tat expression from an integrated provirus, or from HIV acute infection is generally too low to be detected by western blot. Furthermore, antibodies against Tat are known for their lack of avidity. Tat degradation was thus assessed upon transfection. Flag-Tat or Flag-GFP were individually transfected into HEK293T and 24 hrs later, TT-44856, TT-44863 or TT-44881 were added to the culture, followed by Western blot 24 hrs later (dubbed “degradation assay”) (FIG. 5A). […] Finally, the leads' impact on recombinant Tat protein in HEK293T cells was assessed (FIG. 5D). HEK293T cells were incubated with recombinant Tat for 4 hrs to allow Tat internalization, followed by several thorough washes to remove unincorporated Tat. Cells were then incubated with all three leads (or Triptolide) for an additional 2 hrs. Cells were lysed and analyzed by western blot with an anti-Tat serum.

Tat lysine mutants = settings: TT-44881 60 μM; for Tat degradation, single or combined lysine mutations / Tat degradation, additional lysine mutations to K28R, K29R and K41R: TT-44856 40 μM; for Tat degradation, single or combined lysine mutations / Tat degradation, K28R, K29R and K41R: n=1; for Tat degradation, additional lysine mutations to K28R, K29R and K41R: n=2; for Tat degradation, K28R, K29R and K41R: TT-44856 and TT-44863 40 μM
From the text: Tat 86 a.a. has 9 lysine residues (FIG. 8D) that could be engaged by lysine 48-linked ubiquitin chains or nonconventional ubiquitin chains, i.e., non-Lys-48 or non-Lys-63, to be degraded through the 26S proteasomal pathway^3738. […] Tat lysine residues required for leads' degradation engagement can be determined.
In addition to K28-29-K41R, other Tat's lysine residues were mutated and degradation assays performed in the presence of TT-44881 or TT-44856.

Flag-Tat = target: T2, Flag-Tat (Human immunodeficiency virus type 1 (HXB3 ISOLATE), UniProt P69698); assay: Degradation assay: Flag-Tat in HEK293T cells, western blot; assay type: cell-based, HIV; settings: for effect of chloroquine or NH4Cl on compound induced Flag-Tat degradation: Chloroquine 100 μM or NH4Cl 50 mM, 8 hrs; for Flag-Tat degradation / steady state: western blot; for effect of Lenalidomide on compound induced Flag-Tat degradation: Lenalidomide 40 μM, 4 hrs; for effect of MG132 on compound induced Flag-Tat degradation: MG132 20 μM, 17 hrs
T2 construct: Tat 86 aa likely (9 lysines)
T2 sequence (P69698 whole entry): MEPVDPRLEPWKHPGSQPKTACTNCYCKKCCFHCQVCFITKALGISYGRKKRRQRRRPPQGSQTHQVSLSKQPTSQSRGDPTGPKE
Experimental: Next, the effect of the three leads on the alteration of Tat steady state levels was assessed. Tat expression from an integrated provirus, or from HIV acute infection is generally too low to be detected by western blot. Furthermore, antibodies against Tat are known for their lack of avidity. Tat degradation was thus assessed upon transfection. Flag-Tat or Flag-GFP were individually transfected into HEK293T and 24 hrs later, TT-44856, TT-44863 or TT-44881 were added to the culture, followed by Western blot 24 hrs later (dubbed “degradation assay”) (FIG. 5A). […] These cells were treated with TNFα (previously determined not be degraded by the three leads in FIG. 2D) in the presence of TT-44856, TT-44863 or TT-44881, followed by western blot with an anti-Flag antibody 17 hrs later. […] Finally, the leads' impact on recombinant Tat protein in HEK293T cells was assessed (FIG. 5D). HEK293T cells were incubated with recombinant Tat for 4 hrs to allow Tat internalization, followed by several thorough washes to remove unincorporated Tat. Cells were then incubated with all three leads (or Triptolide) for an additional 2 hrs. Cells were lysed and analyzed by western blot with an anti-Tat serum.
Degradation of Tat has been reported in the literature in multiple ways, including the lysosomal pathway^23, the ubiquitin-independent 20S proteasomal pathway (due to its unfolded structure)^24,25, and the ubiquitin-dependent 26S proteasomal pathway^26. It was first assessed whether Tat was targeted to the lysosomal pathway by the lead compounds. HEK293T cells were transfected with Flag-Tat for 24 hrs, incubated with the compounds for an additional 24 hrs, then treated for 8 hrs with either 100 μM chloroquine or 50 mM NH4Cl, both known to inhibit lysosomal hydrolases by reducing acidification. […] Both the 20S and the 26S proteasomal pathways were next investigated using MG132, an inhibitor of the catalytic […] of 20S present in both pathways^27. The degradation assay was carried out as above, but compounds were simultaneously incubated with MG132 20 μM or DMSO for 17 hrs followed by western blot. In the presence of MG132, Tat degradation was rescued, but the rescue was higher in the presence of the lead compounds (FIG. 6B).
Protein ubiquitination occurs by sequential recruitment of ubiquitin-activating enzyme E1, ubiquitin-conjugating enzyme E2, and ubiquitin ligase E3 (using ubiquitin, substrate protein, and ATP). The selectivity in protein ubiquitination is conferred by E3 ubiquitin ligases that recognize the substrate proteins^29 and the human genome contains more than 600 E3 ubiquitin ligases^29. To determine whether the small molecule leads trigger the 20S or the 26S proteasomal pathways, the Tat degradation assay was performed in the presence of commercially available E3 ligase inhibitors, including Lenalidomide a E3 ubiquitin ligase Cereblon inhibitor. Cereblon has not been previously reported to ubiquitinate Tat. The degradation assays were performed as above with Lenalidomide (40 μM) or DMSO incubation for 4 hrs in the presence of the lead molecules (FIG. 7A). […] To confirm the engagement of Cereblon in the mechanism of action of the lead compounds, shRNAs were used to stably knock down Cerebelon, or CD8 control, in HEK293T cells, and the degradation assay for TT-44856 was performed.
The involvement of the ubiquitous VHL E3 ligase in the activity of TT-44881 inducing Tat degradation was also investigated. HEK293T cells overexpressing Tat protein and VHL siRNAs (or si control) were treated with either TT-44881 (60 μM) and DMSO or TT-44881 with a VHL PROTAC (CM11, 500 nM) for 24 hours. siRNAs and PROTACs were used together to maximize the depletion of both VHL isoforms (30 and 19 kDa).

Flag-Tat and GFP = Flag-Tat and GFP (Human immunodeficiency virus type 1 (HXB3 ISOLATE), UniProt P69698); assay: J-Lat A2 cells stimulated with TNF-α, western blot of Flag-Tat and GFP; assay type: cell-based, HIV; settings: TNF-α 20 ng/mL, 17 hours
Sequence of Flag-Tat and GFP (P69698 whole entry): as above
Experimental: FIG. 5. […] Triptolide: 1 nM, TT-44856 and TT-44863: 40 μM, TT-44881: 60 μM. […] C. Impact of the lead hits on J-Lat A2 cells upon 17 hours stimulation with TNF-α (20 ng/mL). EPL: 10 μM, Triptolide (TRP): 1 nM, TT-44856 and TT-44863: 40 μM, TT-44881: 60 μM. […] Triptolide: 1 nM, TT-44856 and TT-44863: 40 μM, TT-44881: 60 μM.
as §1

GFP = assay: Degradation assay control: GFP in HEK293T cells, western blot; assay type: cell-based
Experimental: as §1

Tat or GFP mRNA = Tat or GFP mRNA expression in HEK293T cells; assay type: cell-based; settings: n=3

T1 sequence (P69698 whole entry): as above

CC(C(=O)NCCCn1ccnc1)(c1ccccc1)c1ccccc1 [TT-44856]
recombinant Tat degradation (recombinant Tat): degraded Tat as opposed to the DMSO control | Tat degradation, single or combined lysine mutations (Tat lysine mutants): all the mutants were similarly degraded to the control | Tat degradation, additional lysine mutations to K28R, K29R and K41R (Tat lysine mutants): required either K50/51, K71 or K85 | Tat degradation, K28R, K29R and K41R (Tat lysine mutants): do not prevent lead hits induced Tat degradation | effect of chloroquine or NH4Cl on compound induced Flag-Tat degradation (Flag-Tat; n=1): do not prevent lead hits induced Flag-Tat degradation | Flag-Tat degradation / steady state (Flag-Tat; HEK293T): Tat protein degradation was observed | effect of Lenalidomide on compound induced Flag-Tat degradation (Flag-Tat): prevents Tat compounds induced Flag-Tat degradation | effect of MG132 on compound induced Flag-Tat degradation (Flag-Tat): prevents lead hits induced Flag-Tat degradation | Flag-Tat degradation upon Cereblon knockdown (Flag-Tat; shRNA Cereblon, HEK293T, TT-44856 40 μM, n=1): no longer engaging Flag-Tat for degradation; also recorded: diminishes TT-44856 induced Flag-Tat degradation | Flag-Tat and GFP levels in J-Lat A2 cells (Flag-Tat and GFP): strongly reduced | effect on GFP expression (GFP): did not affect GFP expression | effect on Tat or GFP mRNA expression (Tat or GFP mRNA): without affecting Flag-Tat mRNA levels

COCCOc1ccc(C(F)(F)F)cc1NC(=O)Cn1cc(C(F)(F)F)cc(Cl)c1=O [TT-44863]
recombinant Tat degradation (recombinant Tat): degraded Tat as opposed to the DMSO control | Tat degradation, K28R, K29R and K41R (Tat lysine mutants): do not prevent lead hits induced Tat degradation | effect of chloroquine or NH4Cl on compound induced Flag-Tat degradation (Flag-Tat; n=1): do not prevent lead hits induced Flag-Tat degradation | Flag-Tat degradation / steady state (Flag-Tat; HEK293T): Tat protein degradation was observed | effect of Lenalidomide on compound induced Flag-Tat degradation (Flag-Tat): prevents Tat compounds induced Flag-Tat degradation | effect of MG132 on compound induced Flag-Tat degradation (Flag-Tat): prevents lead hits induced Flag-Tat degradation | Flag-Tat and GFP levels in J-Lat A2 cells (Flag-Tat and GFP): strongly reduced | effect on GFP expression (GFP): did not affect GFP expression | effect on Tat or GFP mRNA expression (Tat or GFP mRNA): without affecting Flag-Tat mRNA levels

O=C(CCCCN1CCCC1=O)c1nn(-c2ccccc2)c2c1CCC2 [TT-44881]
recombinant Tat degradation (recombinant Tat): degraded Tat as opposed to the DMSO control | Tat degradation, single or combined lysine mutations (Tat lysine mutants): all the mutants were similarly degraded to the control | Tat degradation, additional lysine mutations to K28R, K29R and K41R (Tat lysine mutants): mutation of the K19 or K71 to arginine reduced TT-44881 induced Tat degradation | Tat degradation, K28R, K29R and K41R (Tat lysine mutants): do not prevent lead hits induced Tat degradation | effect of chloroquine or NH4Cl on compound induced Flag-Tat degradation (Flag-Tat; n=1): do not prevent lead hits induced Flag-Tat degradation | Flag-Tat degradation / steady state (Flag-Tat; HEK293T): Tat protein degradation was observed | effect of Lenalidomide on compound induced Flag-Tat degradation (Flag-Tat): prevents Tat compounds induced Flag-Tat degradation | effect of MG132 on compound induced Flag-Tat degradation (Flag-Tat): prevents lead hits induced Flag-Tat degradation | Tat degradation upon VHL depletion (Flag-Tat; VHL siRNA and VHL PROTAC CM11 500 nM, 24 hours, TT-44881 60 μM): no longer depleted | Flag-Tat and GFP levels in J-Lat A2 cells (Flag-Tat and GFP): strongly reduced | effect on GFP expression (GFP): did not affect GFP expression | effect on Tat or GFP mRNA expression (Tat or GFP mRNA): without affecting Flag-Tat mRNA levels

Source: patent US20260355184A1, “SMALL MOLECULE DEGRADERS OF HIV-1 TAT PROTEIN” (priority 2022, published 2026)
